Assay results reported in US10660967B2, “Curcumin conjugates and methods of use thereof” (priority 2016, dated 2020).
Read-outs that look alike come from different tables or passages of the source.

Key:
[1] = test system: lipopolysaccharide-stimulated peritoneal macrophages; test: Production of nitric oxide by lipopolysaccharide-stimulated peritoneal macrophages (Greiss reagent); assay type: cell-based; parameters: Potency (%): % inhibition of nitric oxide production relative to lipopolysaccharide-stimulated macrophages: concentration or dose not given beside the values; conditions: LPS-stimulated peritoneal macrophages; for Nitric oxide (nitrite) concentration, μM (average ± SD): 24 h, nitrite by Greiss reagent
In short: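 NO output was quantified as accumulated nitrite, reacting supernatant with Greiss reagent (sulfanilamide/α-naphthylamine) and reading at 532 nm. Beforehand, cells had been incubated 24 h at 37° C. in nitrite-free, 0.1% BSA medium with 0.5–10 ng/ml LPS, with or without catecholamines at […].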

[2] = test system: Salmonella typhi ATCC19430; test: Antimicrobial MIC, agar dilution; assay type: cell-based; conditions: Salmonella enterica, read-out: Minimum inhibitory concentration (MIC)
[3] = test system: HCT116 (colon) carcinoma cell line; test: Anti-tumor properties, MTT; assay type: cell-based; conditions: Homo sapiens, HCT-116
In short: (§1)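 Cells seeded at 10×10^3 per well for 24 h, then exposed to compound in serum-free medium (final up to 100 μM, 0.5% DMSO vehicle) for 72 h in triplicate. Viability by MTT reduction (4 h, SDS solubilised), absorbance 595 nm/ref 620 nm; IC50 from survival curves.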

[4] = test system: HepG2 (hepatocellular) carcinoma cell line; test: Anti-tumor properties, MTT; assay type: cell-based; conditions: Homo sapiens
In short: as §1

[5] = test system: MCF7 (breast) carcinoma cell line; test: Anti-tumor properties, MTT; assay type: cell-based; conditions: Homo sapiens
In short: as §1

MCF-7 cells = test: Effect on doxorubicin induced cytotoxicity (MTT)
In short: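 MCF-7 cells were exposed for 48 hr to 100 μM curcumin derivative alone or combined with 10 μM doxorubicin. Controls got medium, DMSO vehicle, or vehicle+doxorubicin. Percent viable cells was read by MTT assay.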

[6] = test system: A-549 (lung) carcinoma cell line; test: Anti-tumor properties, MTT; assay type: cell-based; conditions: Homo sapiens, A549
[7] = test system: PC3 (prostate) carcinoma cell line; test: Anti-tumor properties, MTT; assay type: cell-based; conditions: Homo sapiens

Structure (SMILES) | Potency (%): % inhibition of nitric oxide production relative to lipopolysaccharide-stimulated macrophages [1] | Nitric oxide (nitrite) concentration, μM (average ± SD) [1] | MIC ([2]; 18 h) | MIC [2] | activity at 100 µM ([3]; HCT116, 100 μM, 72 h, read-out: Percentage growth of tumor cell lines treated with the tested compounds (±SD)) | activity at 100 µM ([4]; HepG2, 100 μM, 72 h, read-out: Percentage growth of tumor cell lines treated with the tested compounds (±SD)) | activity at 100 µM ([5]; MCF7, 100 μM, 72 h, read-out: Percentage growth of tumor cell lines treated with the tested compounds (±SD)) | Percentage of viable cells MCF-7 (average ± SD) (MCF-7 cells; 10 μM DOX in combination with 100 μM curcumin derivative, 48 hr) | viability at 100 µM (MCF-7 cells; Homo sapiens, MCF7, 48 h, read-out: Percentage of viable cells MCF-7 (average ± SD)) | IC50 ([3]; read-out: IC50 (μM) HCT116 (colon)) | IC50 ([4]; HepG2, read-out: IC50 (μM) HepG2 (liver)) | IC50 ([5]; MCF7, read-out: IC50 (μM) MCF7 (breast)) | IC50 [6] | IC50 [7]
COc1cc(/C=C/C(=O)CC(=O)/C=C/c2ccc(OC(=O)C(C)NC(=O)OCc3ccccc3)c(OC)c2)ccc1OC(=O)C(C)NC(=O)OCc1ccccc1 (racemic) [Cbz-DL-Ala-Cur, ((1E,6E)-3,5-dioxohepta-1,6-diene-1,7-diyl)bis(2-methoxy-4,1-phenylene) bis(2-(((benzyloxy)carbonyl)amino)propanoate)] | 45.41% | 14.91 ± 0.62 µM | 0.5 µg/mL | 0.642 µM | 92 ± 2.1% | 82.9 ± 4.1% | 62.7 ± 4.7% | 45.70 ± 2.23 | 98.8 ± 4.55% |  |  |  |  | 
COc1cc(/C=C/C(=O)CC(=O)/C=C/c2ccc(OC(=O)[C@H](N)CCSC)c(OC)c2)ccc1OC(=O)[C@H](N)CCSC.Cl.Cl [HCl-D-Met-Cur, (2R,2′R)-1,1′-((((1E,6E)-3,5-dioxohepta-1,6-diene-1,7-diyl)bis(2-methoxy-4,1-phenylene))bis(oxy))bis(4-(methylthio)-1-oxobutan-2-aminium) chloride] | 49.57% | 13.77 ± 0.96 µM | 0.25 µg/mL | 0.355 µM |  |  |  |  |  | 46.7 µM | 43.6 µM | 10.2 µM | 20 µM | 41.5 µM
